Structures are written as SMILES. Several values for one entry are separate records, joined by “and”; a condition that tells them apart may be missing. Identical values can stand only once.

For one test, the target named is T1, hURAT1 (Homo sapiens, UniProt Q96S37).
T1 sequence (Q96S37 1-553): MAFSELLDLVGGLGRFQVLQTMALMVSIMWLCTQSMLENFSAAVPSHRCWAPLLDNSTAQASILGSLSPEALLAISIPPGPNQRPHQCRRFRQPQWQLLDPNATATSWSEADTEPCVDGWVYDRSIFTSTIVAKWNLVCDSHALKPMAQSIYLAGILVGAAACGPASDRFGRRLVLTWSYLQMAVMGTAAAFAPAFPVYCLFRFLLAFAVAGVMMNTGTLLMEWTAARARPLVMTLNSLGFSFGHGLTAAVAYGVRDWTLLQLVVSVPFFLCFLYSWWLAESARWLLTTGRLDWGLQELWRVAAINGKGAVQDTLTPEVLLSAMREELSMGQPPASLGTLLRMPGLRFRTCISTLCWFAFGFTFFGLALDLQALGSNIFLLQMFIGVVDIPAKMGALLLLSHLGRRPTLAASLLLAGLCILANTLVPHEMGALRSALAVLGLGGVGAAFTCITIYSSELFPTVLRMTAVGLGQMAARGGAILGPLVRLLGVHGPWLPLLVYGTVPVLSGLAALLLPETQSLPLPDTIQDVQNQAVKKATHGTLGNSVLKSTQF
The test can be described thus: Inhibitory activity against URAT1: 14C-labelled uric acid uptake in HEK-293t cells stably expressing hURAT1. The test is classed as cell-based. The note with it: HEK-293t/hURAT1 cells, 14C uric acid uptake, 5 minutes at room temperature; Ref Cpd 2, 83, Ref Cpd 3 and 129 are averages of head-to-head tests; read-out: IC50 (nM) of hURAT1 inhibitory activity. The source says:
• Test example: Determination of the inhibitory activity of compounds according to the present invention against URAT1 Experimental Materials • FBS (Invitrogen, Cat. No. 10099141) • Trypsin (Invitrogen, Cat. No. 25200056) • DPBS (Invitrogen, Cat. No. 14190250) • DMEM (Invitrogen, Cat. No. 10564) • Penicillin-Streptomycin (Invitrogen, Cat. No. 15070-063) • TransIT-293 Transfection Reagent (MIRUS BIO, Cat. No. MIR2706) • Opti-MEM® I Reduced Serum Medium (Invitrogen, Cat. No. 31985-070) • URAT1 plasmid (Genecopoeia, Cat. No. EX-T4563-M03) • Uric acid [8-14C] (ARC, Cat. No. ARC0513-250UCI) • Ultima Gold™ XR (PerkinElmer, Cat. No. 6013111) • Benzbromarone (J&K Scientific, Cat. No. 3562-84-3) • D-Gluconic acid sodium salt (Aladdin, Cat. No. 527-07-1) • Potassium D-gluconate (Aladdin, Cat. No. 299-27-4) • Calcium gluconate (Aladdin, Cat. No. 299-28-5) • DMSO (Sigma, Cat. No. D2650) • Tube, 15 ml (Greiner, Cat. No. 07030115) • Tube, 50 ml (BD Falcon, Cat. No. 352098) • Poly-D-lysine 96-well microplates (BD, Cat. No. 356461) • Isoplate-96 Microplate (PERKIN ELMER, Cat. No. 6005040) Experimental Method:
Cell Culture: • 1. The HEK-293t cells that expressed the stable expression of hURAT1 were cultured in DMEM medium containing 10% FBS and 1% P/S, and incubated overnight in the incubator at 37° C. under 5% carbon dioxide. • 2. the culture medium was removed, and the cells were washed with PBS, and then the pancreatin was added to digest for 2 minutes. After the cell is separated from the dish, 10 ml of medium was added to terminate digestion. • 3. The cells were placed into a centrifugal apparatus and centrifugated for 2 minutes at the speed of 1000 rpm, followed by the addition of fresh 10 mL medium to resuspend the cells, and calculate the number of cells. The number of cells was adjusted to 4×10^5 cells/mL. • 4. the above counted cells were inoculated into the 96-well plate at 100 μL/well. • 5. The 96-well plate with inoculated cells was placed in a 37° C. cell incubator and cultivated overnight.
The uric acid absorption experiment labeled with isotope C14: • 1. 5 mL of Cl-free HBSS buffer was added to a 15 mL centrifuge tube, followed by the addition of the uric acid labeled with C14, and the concentration of uric acid was 2 uCi/ml. • 2. The medium in the 96-well plate that was previously cultivated overnight was removed, and the plate was washed three times with […] preheated Cl-free HBSS buffer. • 3. The buffer in the well-washed 96-well plate was removed. • 4. […] Cl-free HBSS buffer containing C-14 labeled uric acid was added into each well in the cleaned 96-well plate, and then DMSO solution of the compound that needs to be tested was added. • 5. After the 96-well plate stood for 5 minutes at room temperature, all the liquid in it was removed. • 6. […] precooled Cl-free HBSS buffer was added to wash the plate three times. • 7. After the remained liquid in the plates was completely removed, 50 μL cell lysis was added to each well, and the plate was agitated on the mixer at a speed of 600 revolutions/min for 10 minutes. • 8. After 50 μL Ultima Gold™ XR scitillation cocktail fluid was added, the plate was continued to agitate for 10 minutes. The well-agitated plate was sealed, and the data was read on MicroBeta Trilux. • 9. The test compound was dissolved in DMSO, and DMSO at the same concentration was added to the HEK293/hURAT1 cell well without test compounds. […] The radiation value obtained from the well containing DMSO is considered to be 100% of the cell uptake. The IC50 values of compounds can be calculated by the inhibition rate at different concentrations.
Among them, reference compound 1 was synthesized according to the method described in patent WO 2011/159839 A2. Reference compound 2 and reference compound 3 were synthesized according to the method described in patent WO 2014/183555 A1, and they were head-to-head tested with compounds 83 and 129 respectively under the same conditions.
The IC50 is the concentration that inhibits the measured activity by half. Consider `CCOc1cccc(-c2ccc3nccc(SC(C)(C)C(=O)O)c3c2)c1` [Compound 102, 2-(6-(3-ethoxy-phenyl)-quinolin-4-ylthio)-2-methylpropanoic acid], for which the IC50 was 32 nM.

In the case of `O=C(O)C1(Sc2ccnc3ccc(Br)cc23)CCC1` [Ref Cpd 2, reference compound], the IC50 came to 138 nM.

As for `CC(C)(Sc1ccnc2ccc(C(F)(F)F)cc12)C(=O)O` [Compound 96, 2-(6-trifluoromethylquinolin-4-ylthio)-2-methylpropanoic acid], the IC50 was found to be 772 nM.

Consider `CCCC(CCC)(Sc1ccnc2ccc(-c3cccc(OC4CCC4)c3)cc12)C(=O)O` [Compound 110, 2-(6-(3-cyclobutyloxy-phenyl)-quinolin-4-ylthio)-2-propylpentanoic acid], for which the IC50 was found to be 2860 nM.

For the compound `CC(C)(Sc1ccnc2ccc(Br)cc12)C(=O)O` [Compound 22, 2-((6-bromoquinolin-4-yl)thio)-2-methylpropanoic Acid], the IC50 was found to be 159 nM.

As to `CC(C)(Sc1ccnc2ccc(-c3cccc(F)c3)cc12)C(=O)O` [Compound 28, 2-(6-(3-fluorophenyl)-quinolin-4-ylthio)-2-methylpropanoic acid], the IC50 came out at 351 nM.

Regarding `CCC(Sc1ccnc2ccc(Br)cc12)C(=O)O` (centres unmarked) [Compound 24, 2-(6-bromoquinolin-4-ylthio)butanoic acid], the IC50 amounted to 6000 nM.

For the compound `CCC(CC)(Sc1ccnc2ccccc12)C(=O)O` [Compound 129], the IC50 was 201 nM.

As for `CCC(CC)(Sc1ccnc2ccc(-c3cccc(OC4CC4)c3)cc12)C(=O)O` [Compound 112, 2-(6-(3-cyclopropyloxy-phenyl)-quinolin-4-ylthio)-2-ethylbutanoic acid], the IC50 stood at 147 nM.

For `CC(C)(Sc1ccnc2ccc(-c3cccnc3)cc12)C(=O)O` [Compound 3, 2-(6-(pyridin-3-yl)quinolin-4-ylthio)-2-methylpropanoic acid], the IC50 turned out to be 514 nM.

Regarding `CC(C)(Sc1ccnc2ccccc12)C(=O)O` [Compound 93, 2-(quinolin-4-ylthio)-2-methylpropanoic acid], the IC50 came out at 2400 nM.

For `COc1cc2nccc(SC(C)(C)C(=O)O)c2cc1OC` [Compound 95, 2-(6,7-dimethoxyquinolin-4-ylthio)-2-methylpropanoic acid], the IC50 is more than 30000 nM.

On to `CC(C)(Sc1ccnc2ccc(-c3ccccc3F)cc12)C(=O)O` [Compound 25, 2-(6-(2-fluorophenyl)-quinolin-4-ylthio)-2-methylpropanoic acid], for which the IC50 was 812 nM.

Regarding `CC(C)C(Sc1ccnc2ccc(Br)cc12)C(=O)O` (centres unmarked) [Compound 94, 2-(6-bromoquinolin-4-ylthio)-3-methylbutanoic acid], the IC50 stood at 4300 nM.

Regarding `CC(C)(Sc1ccnc2ccc(-c3ccc(C#N)cc3)cc12)C(=O)O` [Compound 100, 2-(6-(4-cyano-phenyl)-quinolin-4-ylthio)-2-methylpropanoic acid], the IC50 was found to be 8140 nM.

For `CC(C)(Sc1ccnc2ccc(-c3ccncc3)cc12)C(=O)O` [Compound 4, 2-(6-(pyridin-4-yl)quinolin-4-ylthio)-2-methylpropanoic acid], the IC50 is 127 nM.

In the case of `Cc1cc(-c2ccc3nccc(SC(C)(C)C(=O)O)c3c2)ccn1` [Compound 120, 2-(6-(2-methylpyridin-4-yl)quinolin-4-ylthio)-2-methylpropanoic acid], the IC50 is 1240 nM.

`CS(=O)(=O)NC(=O)C1(Sc2ccnc3ccc(Br)cc23)CCC1` [Compound 107, 1-(6-bromoquinolin-4-ylthio)-N-(methylsulfonyl)cyclobutyl-1-formamide]: the IC50 came to 336 nM.

Take `COc1ccc(-c2ccc3nccc(SC(C)(C)C(=O)O)c3c2)cc1` [Compound 21, 2-(6-(4-methoxyphenyl)quinolin-4-ylthio)-2-methylpropanoic acid]: the IC50 was determined as 1900 nM.

With `COc1cc(-c2ccc3nccc(SC(C)(C)C(=O)O)c3c2)ccn1` [Compound 115, 2-(6-(2-methoxypyridin-4-yl)quinolin-4-ylthio)-2-methylpropanoic acid], the IC50 is 79 nM.

Take `CC(C)(Sc1ccnc2ccc(-c3ccc(C(F)(F)F)cc3)cc12)C(=O)O` [Compound 34, 2-(6-(4-(trifluoromethyl)phenyl)quinolin-4-ylthio)-2-methylpropanoic acid]: the IC50 was 4600 nM.

For `CCC(CC)(Sc1ccnc2ccc(-c3ccncc3)cc12)C(=O)O` [Compound 119, 2-(6-(pyridin-4-yl)quinolin-4-ylthio)-2-ethylbutanoic acid], the IC50 came to 133 nM.

In the case of `CCOc1cccc(-c2ccc3nccc(SC(CC)(CC)C(=O)O)c3c2)c1` [Compound 113, 2-(6-(3-ethoxy-phenyl)-quinolin-4-ylthio)-2-ethylbutanoic acid], the IC50 turned out to be 109 nM.

For `O=C(O)C1(Sc2ccnc3ccccc23)CCC1` [Ref Cpd 3, reference compound], the IC50 worked out at 794 nM.

On to `CC(C)(Sc1ccnc2ccc(-c3ccccc3C(F)(F)F)cc12)C(=O)O` [Compound 37], for which the IC50 came out at 325 nM.

Regarding `CC(C)(Sc1ccncc1-c1ccc(C#N)c2ccccc12)C(=O)O` [Ref cpd 1 (RDEA3170), reference compound], the IC50 worked out at 154 nM.

As to `CCCC(CCC)(Sc1ccnc2ccc(-c3cccc(OC4CC4)c3)cc12)C(=O)O` [Compound 109, 2-(6-(3-cyclopropyloxy-phenyl)-quinolin-4-ylthio)-2-propylpentanoic acid], the IC50 is 722 nM.

Turning to `COc1cccc(-c2ccc3nccc(SC(C)(C)C(=O)O)c3c2)c1` [Compound 20, 2-(6-(3-methoxyphenyl)-quinolin-4-ylthio)-2-methylpropanoic acid], the IC50 is 21 nM.

Regarding `CC(C)(Sc1ccnc2ccc(-c3cccc(OC(F)(F)F)c3)cc12)C(=O)O` [Compound 101, 2-(6-(3-trifluoromethoxy-phenyl)-quinolin-4-ylthio)-2-methylpropanoic acid], the IC50 is 710 nM.

Consider `CC(C)(Sc1ccnc2ccc(-c3cccc(OC(F)F)c3)cc12)C(=O)O` [Compound 104], for which the IC50 was determined as 238 nM.

The same test, now with this note: average of the multiple head-to-head comparison tests, Table 2; read-out: Average (IC50 of multiple determinations).
Take `O=C(O)C1(Sc2ccnc3ccc(Br)cc23)CCC1` [Ref Cpd 2, reference compound]: the IC50 was found to be 138 nM.

The test is the same for the next values; noted with them: single determinations of multiple head-to-head tests, Ref cpd 2 vs Cpd 83; read-out: Multiple determination data (IC50).
For the compound `O=C(O)C1(Sc2ccnc3ccc(Br)cc23)CCC1` [Ref Cpd 2, reference compound], the concentration for half-maximal inhibition (IC50) is 72.9 nM and 185 nM and 172 nM and 164 nM and 144 nM and 127 nM and 99 nM.

For the origin of these results see patent publication US10450274B2, “Quinoline compounds, preparation methods thereof, and uses thereof as urate transporter inhibitor drug” (HINOVA PHARMACEUTICALS INC., priority 2015, dated 2019).
